“Also recorded” adds a separate entry of the source.
Experiments:
[1] = system: human HDL; assay: Copper-induced oxidation of human HDL, TBARS/MDA (Example 14); type: biochemical
Description: LDL and sdLDL subfractions (0.6 mL each) were incubated with either 10 μL vehicle (ethanol) or 10 μL drug stock solution for 30 min to 1 hr at 37° C. Oxidation was initiated by the addition of 10 μM CuSO4. After 2 hr, 100 μL aliquots were removed from each subfraction and combined with 1.0 mL thiobarbituric acid (0.5%), 10 μL trichloroacetic acid (5%), 10 μL BHT (5 mg/mL in methanol), and 10 μL EDTA (5 mM). Sample aliquots were incubated at 100° C. for 20 min and then assayed for the formation of thiobarbituric acid-reactive substances (TBARS), which have a molar absorptivity (c) value of 1.56×10^5 M^−1 cm^−1 at 532 nm and are derived principally from the reaction of thiobarbituric acid with malondialdehyde (MDA), a reactive aldehyde produced by LDL oxidation. Sample TBARS concentrations were determined spectrophotometrically by measuring sample absorbances against a standard curve derived from the hydrolysis of 1,1,3,3-tetramethoxypropane.
A study was performed to test whether EPA, DHA or EPA/DHA have antioxidant effects on high density lipoprotein. HDL was isolated from human plasma by iodixanol gradient ultracentrifugation and adjusted to a final apolipoprotein (apoA1) concentration of 10 mg/mL. Isolated HDL was separated into test samples of 200 μg/mL […] (based on ApoA1), and incubated at 37° C. in the absence (vehicle) or presence of EPA and/or DHA; 5.0 or […] each. Samples were then subjected to copper-induced oxidation (10 μM CuSO4) and, at different time points up to 14 hours, aliquots were removed from each sample and formation of TBARS was determined as explained above in Example 6.

[2] = Cholesterol domain formation by small angle x-ray diffraction (Example 3); conditions: PUFA-enriched model membranes, after autoxidation
Description: Cholesterol domain peak intensity was calculated from multiple small angle x-ray diffraction measurements, which are directly proportional to domain levels. […] EPA-treated membranes reduced LOOH levels by greater than 90% (728±30 μM) compared to untreated controls (p<0.001).

[3] = system: sdLDL isolated from human plasma; assay: Copper-induced sdLDL oxidation for 1 hour (Example 12); type: biochemical; conditions: 10.0 μM; sdLDL 200 μg/mL; copper-induced oxidation 1 hour
[4] = patients; clinical studies by others; cited from earlier work
[5] = Lipid hydroperoxide (LOOH) formation in cholesterol-enriched model membranes under autoxidation (Example 3); type: biochemical; conditions: EPA to lipids 1:30, C/P mole ratio 0.6:1
Description: An experiment was conducted to test EPA in model membranes enriched with PUFAs and cholesterol at levels that reproduce disease or high CV-risk conditions (i.e., hypercholesterolemia). […] Levels of lipid hydroperoxides were also measured in cholesterol-enriched membrane prepared in the absence of EPA as a control. […] CHOD-iodide color reagent (stock) was prepared according to a procedure modified from El-Saadani et […], Goher […], Jurgens G. A spectrophotometric assay for lipid peroxides in serum lipoproteins using commercially available reagent. J. Lipid. […] Membrane samples consisting of DLPC±cholesterol were prepared as follows. […] To ensure spectrophotometric readings within the optimum absorbance range, sample volumes taken for measurement of lipid peroxide formation were adjusted for length of peroxidation and range between 100 and 10 μL. […] Absorbances were measured against a CHOD blank at 365 nm using a Beckman DU-640 spectrophotometer. The CHOD colorimetric assay is based on the oxidation of iodide (I^-) by lipid hydroperoxides (LOOH) and proceeds according to the following reaction scheme: […]3^- The quantity of triiodide anion (I3^-) liberated in this reaction is directly proportional to the amount of lipid hydroperoxides present in the membrane sample.

[6] = 5 μM (combination: 5 μM each), 6 h

## CC/C=C\C/C=C\C/C=C\C/C=C\C/C=C\CCCC(=O)O [EPA, cis-5,8,11,14,17-eicosapentaenoic acid]
[1]; [6]
  MDA formation: 1.03 ± 0.10 µM
  inhibition of HDL oxidation (antioxidant activity): 81%
[1]; 10 μM, 1.0 hr, 10 μM CuSO4
  MDA formation: 0.384 ± 0.097 µM
  inhibition of HDL oxidation: 92%
[1]; 10 μM, 4 h
  MDA formation: 0.622 ± 0.066 µM
  inhibition of HDL oxidation: 89%
[1]; 10 μM, 14 h
  MDA formation: 2.01 ± 0.10 µM
  inhibition of HDL oxidation vs. vehicle: 64%
[2]
  cholesterol crystalline domain formation: inhibits cholesterol crystalline domain formation
[3]
  reduction of sdLDL oxidation compared to vehicle treatment alone: > 90%
[4]
  triglycerides and oxidized LDL, Lp-PLA2, hsCRP as compared to placebo: significant reductions in levels of oxidized LDL, Lp-PLA2, and hsCRP; also recorded: significant reductions in triglycerides along with reduced levels of markers of inflammation
[5]; after autoxidation 72 hours
  LOOH level: 728 ± 30 µM
[5]; autoxidation 37° C., 72 hours
  reduction of LOOH levels compared to untreated controls: greater than 90%

Source: patent publication US20190054054A1, “Methods reducing or preventing oxidation of high density lipoprotein (HDL)” (Amarin Pharmaceuticals Ireland Limited, priority 2017, published 2019)
